Measurements as given in US20260199365A1, “BIS-SULFONAMIDE SHIP1 ACTIVATORS” (The Research Foundation for the State University of New York, priority 2022, published 2026).

Target: T1, recombinant human truncated SHIP1 (tSHIP1) (Homo sapiens, UniProt Q92835)
T1 construct: tSHIP1 (SHIP1, residues 397-864) was amplified from pET24TEV-tSHIP1; His tag; made in house; host or cells: E. coli BL21
T1 sequence (Q92835 397-864): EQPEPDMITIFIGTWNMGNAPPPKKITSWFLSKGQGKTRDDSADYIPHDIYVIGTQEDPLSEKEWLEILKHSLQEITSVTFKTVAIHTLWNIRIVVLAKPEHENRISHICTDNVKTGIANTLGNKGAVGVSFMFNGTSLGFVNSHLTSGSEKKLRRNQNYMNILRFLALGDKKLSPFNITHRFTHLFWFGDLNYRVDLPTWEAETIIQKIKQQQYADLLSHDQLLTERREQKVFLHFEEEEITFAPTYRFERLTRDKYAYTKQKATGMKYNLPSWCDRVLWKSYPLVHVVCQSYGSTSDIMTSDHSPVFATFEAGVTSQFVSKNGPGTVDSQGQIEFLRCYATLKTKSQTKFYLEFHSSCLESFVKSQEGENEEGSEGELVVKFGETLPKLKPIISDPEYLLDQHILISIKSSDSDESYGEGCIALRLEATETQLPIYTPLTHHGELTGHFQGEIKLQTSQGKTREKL
Experiment: Malachite Green Phosphatase Release Assay (SHIP1 phosphatase activity)
Format: biochemical
Conditions: for Phosphatase activity in the Malachite Green Assay, analog concentration 125 μM: 125 μM analog; for Phosphatase activity in the Malachite Green Assay, analog concentration 125 μM / Phosphatase activity in the Malachite Green Assay, analog concentration 250 μM / Phosphatase activity in the Malachite Green Assay, analog concentration 500 μM: 100 μM PI(3,4,5)P3-diC8 substrate, normalized to vehicle control (DMSO) = 100%; for Phosphatase activity in the Malachite Green Assay, analog concentration 250 μM: 250 μM analog; for Phosphatase activity in the Malachite Green Assay, analog concentration 500 μM: 500 μM analog, >100% activation, <100% inhibition; for SHIP1 activator activity in the malachite green assay: discussion of Table 4 (125-500 μM); for Malachite (SHIP1), 125 μM / Malachite (SHIP1), 250 μM / Malachite (SHIP1), 500 μM: bis-sulfonamide hybrids
Experimental: ^aPhosphatase activity for SHIP1 and SHIP2 enzyme as determined in the malachite green assay. Results were normalized to the phosphatase activity level from vehicle control (DMSO) used as 100% activity. Values >100% are attributed to activation, while values <100% show inhibition of the enzyme compared to the control. The assay was performed at the indicated concentration of the small molecule with 100 μM PI(3,4,5)P3-diC8 as the substrate. ^bnd=not determined, compound 23 was insoluble.
Cloning and expression of tSHIP1 of truncated human SHIP1 protein (tSHIP1) from human whole blood mRNA have been previously described (see Brooks R, Iyer, S., Akada, H., Neelam, S., Russo, C. M., Chisholm, J. D., and Kerr W. G. Coordinate Expansion of Murine Hematopoietic and Mesenchymal Stem Cell Compartments by SHIPi Stem Cells 2015; 33:848). Briefly, tSHIP1 (SHIP1, residues 397-864) was amplified from pET24TEV-tSHIP1. Plasmids were extracted with Midi Prep (Qiagen) and sequences were verified by sequencing of the entire expression regions. The plasmids were then transformed into E. coli BL21 (New England Biolabs). Fresh colonies were amplified in 1 L LB at 37° C., shaking at 250 rpm until OD600 nm reached 0.6. Protein expression was induced with […] IPTG and incubation was continued at 16° C., shaking at 250 rpm for 16 h. Following centrifugation, bacteria pellets were stored overnight at −20° C. Protein was extracted form bacterial cell pellet using BugBuster HT (Millipore), according to manufacturer's recommendations. The His-tagged protein was purified by FPLC using HisTrapHP 5 ml column (Cytiva Life Sciences) at a 5 ml/min flow rate and 10 mM-1M imidazole gradient in Buffer A (20 mM Tris pH 8.0, 300 mM NaCl, 10 mM imidazole, 5 mM β-mercaptoethanol). Fractions containing active protein by Malachite Green Phosphatase Release Assay (Echelon, see below) were pooled, concentrated and buffer exchanged to reduce imidazole concentration by centrifugation using Pierce Protein Concentrators 30KMWCO PES, (ThermoFisher Scientific). Protein was aliquoted and stored at −80° C. in a mixture of Buffer A (without β-ME) and 50% glycerol.
Malachite Green Phosphatase Release Assays: Malachite Green Phosphatase Release Assays (Echelon Biosciences) were performed with recombinant human truncated SHIP1 (tSHIP1) (Brooks, 2015) and SHIP2 (Echelon Biosciences). Briefly, serial dilutions of the compounds dissolved in DMSO were added to the recombinant enzymes diluted in reaction buffer Rx (50 mM Hepes pH 7.4, 150 mM NaCl, 1 mM MgCl2, 0.25 mM EDTA) in triplicate reactions in 96-well plates. Reactions were incubated for 2 min at room temperature. […] of 1 mM Phosphatidylinositol 3,4,5-trisphosphate diC8 (PI(3,4,5)P3diC8) (Echelon Biosciences) was added to each reaction to a final concentration of 100 μM in a final volume of […]. Following 20 min incubation at 37° C., 100 μL of Malachite Green Solution (Echelon Biosciences) was added to each well and plates were incubated at room temperature in the dark for 15 min. Plates were then read at 620 nm on a plate reader (Synergy 2, BioTek).

| Compound | Phosphatase activity in the Malachite Green Assay, analog concentration 125 μM | Phosphatase activity in the Malachite Green Assay, analog concentration 250 μM | Phosphatase activity in the Malachite Green Assay, analog concentration 500 μM | SHIP1 activator activity in the malachite green assay | Malachite (SHIP1), 125 μM | Malachite (SHIP1), 250 μM | Malachite (SHIP1), 500 μM |
| --- | --- | --- | --- | --- | --- | --- | --- |
| Cc1sc(S(=O)(=O)N2CCSCC2)cc1NC(=O)CNS(=O)(=O)c1ccc(I)cc1 [Compound K374, 2-(4-Iodobenzenesulfonamido)-N-[2-methyl-5-(thiomorpholine-4-sulfonyl)thiophen-3-yl]acetamide] | 99% | 83% | 119% | loss of bioactivity |  |  |  |
| Cc1sc(S(=O)(=O)N2CCSCC2)cc1NC(=O)[C@H](Cc1ccccc1)NS(=O)(=O)c1ccc(F)cc1 [Compound K396, (2S)-2-(4-Fluorobenzenesulfonamido)-N-[2-methyl-5-(thiomorpholine-4-sulfonyl)thiophen-3-yl]-3-phenylpropanamide] | 71% | 74% | 130% |  |  |  |  |
| Cc1sc(S(=O)(=O)N2CCOCC2)cc1NC(=O)CNS(=O)(=O)c1ccc(F)cc1 [Compound K367, 2-(4-Fluorobenzenesulfonamido)-N-[2-methyl-5-(morpholine-4-sulfonyl)thiophen-3-yl]acetamide] |  | 93% | 94% | loss of activity |  |  |  |
| Cc1sc(S(=O)(=O)N2CCSCC2)cc1NC(=O)CNC(=O)c1ccccc1 [Compound K371, N-[2-methyl-5-(thiomorpholine-4-sulfonyl)thiophen-3-yl]-2-(phenylformamido) acetamide] | 97% | 94% | 83% | loss of potency |  |  |  |
| Cc1sc(S(=O)(=O)N2CCCC2)cc1NC(=O)CNS(=O)(=O)c1ccc(F)cc1 [Compound K387, 2-(4-Fluorobenzenesulfonamido)-N-[2-methyl-5-(pyrrolidine-1-sulfonyl)thiophen-3-yl]acetamide] | 100% | 97% | 90% | loss of activity |  |  |  |
| O=C(CNS(=O)(=O)c1ccc(F)cc1)Nc1cccc(S(=O)(=O)N2CCSCC2)c1 [Compound K400, 2-(4-Fluorobenzenesulfonamido)-N-[3-(thiomorpholine-4-sulfonyl)phenyl]acetamide] | 94% | 97% | 107% | less active |  |  |  |
| Cc1sc(S(=O)(=O)N2CCSCC2)cc1NC(=O)CN1C(=O)c2ccccc2S1(=O)=O [Compound K402, N-[2-methyl-5-(thiomorpholine-4-sulfonyl)thiophen-3-yl]-2-(1,1,3-trioxo-2,3-dihydro-1-benzothiazol-2-yl) acetamide] | 109% | 131% | 161% | nearly as potent as 69 |  |  |  |
| Cc1sc(S(=O)(=O)N2CCSCC2)cc1NC(=O)[C@@H](NS(=O)(=O)c1ccc(F)cc1)c1ccccc1 [Compound K409, (2S)-2-(4-Fluorobenzenesulfonamido)-N-[2-methyl-5-(thiomorpholine-4-sulfonyl)thiophen-3-yl]-2-phenylacetamide] | 94% | 107% | 134% |  |  |  |  |
| Cc1sc(S(=O)(=O)N2CCSCC2)cc1N [Compound K381] | 109% | 107% | 113% | reduced effect on SHIP activation |  |  |  |
| Cc1sc(S(=O)(=O)N2CCSCC2)cc1NC(=O)[C@@H](Cc1ccccc1)NS(=O)(=O)c1ccc(F)cc1 [Compound K395, (2R)-2-(4-Fluorobenzenesulfonamido)-N-[2-methyl-5-(thiomorpholine-4-sulfonyl)thiophen-3-yl]-3-phenylpropanamide] | 112% | 106% | 106% |  |  |  |  |

The next lines start with the values.

| Phosphatase activity in the Malachite Green Assay, analog concentration 125 μM | Phosphatase activity in the Malachite Green Assay, analog concentration 250 μM | Phosphatase activity in the Malachite Green Assay, analog concentration 500 μM | SHIP1 activator activity in the malachite green assay | Malachite (SHIP1), 125 μM | Malachite (SHIP1), 250 μM | Malachite (SHIP1), 500 μM | Compound |
| --- | --- | --- | --- | --- | --- | --- | --- |
|  |  |  |  | 79% | 84% | 91% | CCCCNS(=O)(=O)c1ccc(NC(=O)[C@@H]2CCCN2S(=O)(=O)c2ccccc2C(F)(F)F)cc1 [Compound K424] |
|  |  |  |  | 80% | 88% | 116% | O=C(CNS(=O)(=O)c1ccccc1C(F)(F)F)Nc1ccc(S(=O)(=O)N2CCCCC2)cc1 [Compound K427] |
| 112% | 105% | 130% | Activity was maintained |  |  |  | O=C(CNS(=O)(=O)c1ccc(F)cc1)Nc1ccc(S(=O)(=O)N2CCSCC2)cc1 [Compound K399, 2-(4-Fluorobenzenesulfonamido)-N-[4-(thiomorpholine-4-sulfonyl)phenyl] acetamide] |
|  |  |  |  | 96% | 122% | 158% | Cc1sc(S(=O)(=O)N2CCCCC2)cc1NC(=O)[C@@H]1CCCN1S(=O)(=O)c1ccccc1C(F)(F)F [Compound K421] |
|  |  |  |  | 99% | 109% | 136% | O=C(Nc1ccc(S(=O)(=O)N2CCCCC2)cc1)[C@@H]1CCCN1S(=O)(=O)c1ccc(C(F)(F)F)cc1 (stereo in doubt) [Compound K423] |
|  |  |  |  | 75% | 80% | 81% | CCCCNS(=O)(=O)c1ccc(NC(=O)[C@@H]2CCCN2S(=O)(=O)c2ccc(C(F)(F)F)cc2)cc1 [Compound K425] |
|  |  |  |  | 99% | 112% | 138% | O=C(Nc1ccc(S(=O)(=O)N2CCCCC2)cc1)[C@@H]1CCCN1S(=O)(=O)c1ccccc1C(F)(F)F [Compound K420] |
|  |  |  |  | 75% | 63% | 74% | O=C(CNS(=O)(=O)c1ccc(C(F)(F)F)cc1)Nc1ccc(S(=O)(=O)N2CCCCC2)cc1 [Compound K426] |
